This is an account of results in article PMC10002493, “Direct Oral FXa Inhibitors Binding to Human Serum Albumin: Spectroscopic, Calorimetric, and Computational Studies” (International Journal of Molecular Sciences, 2023).

Counter-ions that a name gives are not always drawn. Like-named read-outs stand apart in the source and are kept apart here.

For data set [1], the system named is T1, human serum albumin (HSA).
T1 construct: purchased Sigma-Aldrich
The data set can be described thus: Steady-state fluorescence quenching of HSA (Stern–Volmer analysis). The format is binding. As to conditions: for Ksv (Stern–Volmer constant): 0.10 M tris-HCl pH 7.4, 0.10 M NaCl, 2 µM HSA, 0–20 µM drug, λex 295 nm; for Ksv of salt compared to the neutral compound: 298 K and 310 K. As for the experimental part:
The fluorescence intrinsic to proteins is attributed to aromatic amino acid residues, such as tryptophan (Trp), phenylalanine (Phe), and tyrosine (Tyr). The fluorescence of HSA in particular can be traced back to its tyrosine and tryptophan residues, therefore the experiments were performed with an excitation wavelength of 295 nm, because tryptophan absorbs light in this range [33]. HSA has a single tryptophan residue (Trp-214) close to the Sudlow site I (subdomain IIA), responsible for the main fluorescence emission of the protein [34, 35]. Binding to this site induces fluorescence quenching, which is a very helpful tool to evaluate different drugs’ interactions with HSA.
Sample measurements were recorded in 0.10 M tris-HCl buffer pH 7.4 with 0.10 M NaCl, 2 µM HSA, 0–20 µM FXa inhibitors respectively (λex = 295 nm).
The quenching process of HSA can be described as static or dynamic. Static quenching occurs when HSA forms complexes with anticoagulants in the ground state, whereas dynamic quenching occurs via diffusion-controlled encounters in the excited state. Consequently, temperature affects the quenching processes in a different manner. The Stern–Volmer constant has a temperature dependence: Ksv in a dynamic process increases with temperature due to the necessity of successful diffusion and collision of the FXa inhibitors with the tryptophan residues of HSA. In a static quenching process, Ksv decreases with rising temperature, due to the diminished stability of the complex in the ground state. The quenching process of HSA can be analyzed by the Stern–Volmer equation, which provides helpful information regarding the binding process. Table 1 and Figure 4 summarize the Ksv of the HSA-FXa inhibitor complexes at 298 K and 310 K respectively. The Ksv of betrixaban and edoxaban were compared with their respective salts, betrixaban maleate (BEM) and edoxaban tosylate hydrate (EDT).
Fluorescence emission spectra were collected on a Perkin Elmer LS55 fluorimeter, using 5 nm bandwidths for excitation and emission. Samples were excited at 295 nm and 298 K or 310 K, respectively. Subsequently, HSA fluorescence was measured at 350 nm decreases, in the presence of different anticoagulants, corrected by the inner-filter effect using Equation (1) where Icorr and Iobs correspond to fluorescence corrected and obtained intensities, and Aex and Aem correspond to the absorbance at the excitation and emission wavelengths. The quenching data were evaluated using the Stern–Volmer Equation (2), where I0 and I are the fluorescence intensities of the HSA in the absence or presence of anticoagulants (Q, quenchers), and Ksv is the Stern–Volmer constant:(1) Icorr=Iobs×10^Aex+Aem/2 (2) I0/I=1+KsvQ

The test system of data set [2] is HSA: heme-Fe(III). On the set-up: method as in PMID 32279215. To be noted: pH 7.3, 20 °C, Phosphate 2.0 × 10^−2 M DMSO 10%, binding site IB, UV; cited from earlier work.
The conditions of data set [3]: reversible protein–drug complexes; cited from earlier work.
Details of data set [4]: method as in PMID 32279215. As to conditions: rivaroxaban-treated patients; cited from earlier work.
Data set [5] relates to BSA. As to conditions: binding site IIA, FS, cited from earlier work.
Data set [6] is described as follows: Aqueous solubility observed in preparing ITC solutions. To be noted: also with solvent mixtures that included ethanol and DMSO, prevented ITC data. The format is physicochemical. The protocol: (§1) ITC analyses were performed in phosphate buffer, 10 mM, pH = 7.4. […] Lower ionization enthalpy reduces heat signals associated with proton-exchange reactions between the buffer and the ligand/host system during complex formation. […] A plot of the heat released per mole of HSA as a function of the molar ratio of the solution ([HSA]/[anticoagulant]) is shown at the foot of each figure. […] Control titrations were performed (drug over buffer) and subtracted from each analysis before the fitting.
(§2) ITC data were obtained using a MicroCal PEAQ-ITC instrument (Malvern Panalytical). […] Working solutions were prepared using aliquots of the stock solutions of anticoagulants diluted in phosphate buffer, 10 mM, pH = 7.4. […] The first injection was 0.40 μL, followed by 12 injections of 3.0 μL. Reference power was set to 5 μcal/s, 500 rpm stirring speed, initial delay of 60 s, and injection spacing of 150 s. Titration curves were drawn in duplicate and the thermodynamic parameters were fitted to the one-site binding model using Microcal PEAQ-ITC analysis software. Controls were measured by recording the heat effects of the titrant over plain buffer and were subtracted from thermograms before fitting analysis. All the measurements were performed in duplicate.

Data set [7] has as its target T2, fatty-acid-free HSA.
T2 construct: purchased Sigma-Aldrich
Nature of the data set: Isothermal titration calorimetry (ITC) of anticoagulants with HSA. On the set-up: species or system human. As to conditions: phosphate buffer 10 mM, pH 7.4, 298 K, one-site binding model. As for the experimental part:
as §1, §2
For orientation: Isothermal titration calorimetry measures the heat released or taken up as one component is titrated into another.

In data set [8] the test system is HSA fatty acid-free. On the set-up: method as in PMID 29680174. To be noted: Tris–HCl (0.10 M NaCl) DMSO 2%, FS, cited from earlier work.

As to `O=C(NC[C@H]1CN(c2ccc(N3CCOCC3=O)cc2)C(=O)O1)c1ccc(Cl)s1` [RV, rivaroxaban], the “Ksv (Stern–Volmer constant)” value in data set [1] (298 K) is given as 1.56 ± 0.03 ×10^4 M^−1; in data set [1] (310 K), 0.98 ± 0.04 ×10^4 M^−1. In addition, the K was 455000 M⁻¹ in data set [2]; 132000 M⁻¹ in data set [5] (pH 7.4, 25 °C, Phosphate DMSO 0.3%); 18200 M⁻¹ in data set [5] (pH 7.4, 30 °C, Phosphate DMSO 0.3%); 4370 M⁻¹ in data set [5] (pH 7.4, 35 °C, Phosphate buffer DMSO 0.3%). In data set [3], the “binding to plasma proteins” value was 95%. In addition, the “adjusted risk of bleeding per 1.0 g/dL incremental decrease in albumin” value in data set [4] is given as 4.4 fold. Further, the aqueous solubility result in data set [6] is “poor aqueous solubility”; in data set [6] (listed as rivaroxaban), “low water solubility”.

`CN1CCc2nc(C(=O)N[C@@H]3C[C@@H](C(=O)N(C)C)CC[C@@H]3NC(=O)C(=O)Nc3ccc(Cl)cn3)sc2C1.Cc1ccc(S(=O)(=O)O)cc1.O` [EDT, Edoxaban tosylate hydrate]: the “Ksv of salt compared to the neutral compound” value in data set [1] is “no significant differences”. The entries for the “Ksv (Stern–Volmer constant)” value in data set [1] (298 K) and in data set [1] (310 K) were 1.79±0.03 ×10^4 M^−1 and 1.27±0.02 ×10^4 M^−1, respectively. For the same molecule, the aqueous solubility result in data set [6] was “poor aqueous solubility”.

With `COc1ccc(NC(=O)c2ccc(C(=N)N(C)C)cc2)c(C(=O)Nc2ccc(Cl)cn2)c1` [BEM, betrixaban maleate], the KITC binding constant in data set [7] was 1600 M⁻¹. Further, the “Ksv of salt compared to the neutral compound” value in data set [1] was “no significant differences”. Further, the entries for the “Ksv (Stern–Volmer constant)” value in data set [1] (298 K) and in data set [1] (310 K) were 1.59±0.05 ×10^4 M^−1 and 1.36±0.03 ×10^4 M^−1, respectively.

As to `CN1CCc2nc(C(=O)N[C@@H]3C[C@@H](C(=O)N(C)C)CC[C@@H]3NC(=O)C(=O)Nc3ccc(Cl)cn3)sc2C1` [ED, edoxaban], the “Ksv (Stern–Volmer constant)” value in data set [1] (298 K) is recorded as 1.60 ± 0.04 ×10^4 M^−1; in data set [1] (310 K), 1.28 ± 0.05 ×10^4 M^−1. Besides, in data set [2], the K is 769000 M⁻¹. The “binding to plasma proteins” value in data set [3] is listed as 55%. Further, the aqueous solubility entry is recorded as “poor aqueous solubility” in data set [6] and “low water solubility” in data set [6] (listed as edoxaban).

In data set [7], `COc1ccc(-n2nc(C(N)=O)c3c2C(=O)N(c2ccc(N4CCCCC4=O)cc2)CC3)cc1` [AP, apixaban] returned a KITC binding constant of 5560 M⁻¹. In addition, the “Ksv (Stern–Volmer constant)” value was 3.36 ± 0.03 ×10^4 M^−1 in data set [1] (298 K) and 2.79 ± 0.02 ×10^4 M^−1 in data set [1] (310 K). For the same molecule, the K is 2.78e+06 M⁻¹ in data set [2]; 3410 M⁻¹ in data set [8] (pH 7.4, 28 °C, binding site IIA); 2460 M⁻¹ in data set [8] (pH 7.4, 37 °C, binding site IB); 1670 M⁻¹ in data set [8] (pH 7.4, 45 °C, binding site IB).

`COc1ccc(NC(=O)c2ccc(C(=N)N(C)C)cc2)c(C(=O)Nc2ccc(Cl)cn2)c1` [BE, betrixaban]: the “Ksv (Stern–Volmer constant)” value in data set [1] (298 K) is given as 1.86 ± 0.03 ×10^4 M^−1; in data set [1] (310 K) it was 1.44 ± 0.04 ×10^4 M^−1. The K in data set [2] is 1.61e+06 M⁻¹. The aqueous solubility result in data set [6] was “poor aqueous solubility”.
